Experimental data from patent US6362369B1, “Phthalic acid diamide derivatives fluorine-containing aniline compounds as starting material, agricultural and horticultural insecticides, and a method for application of the insecticides” (Nihon Nohyaku Co., Ltd., priority 1997, dated 2002).

System: diamondback moth (Plutella xylostella)
Test: Insecticidal effect on diamondback moth (Test Example 1)
Format: in vivo
Details: diamondback moth; judged by the criterion of Test Example 1
Outline: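 Chinese cabbage seedlings carrying eggs laid by released adult moths were immersed in treatment, air-dried and held at 25° C. Hatched insects were counted six days after immersion, and mortality was calculated and scored against a fixed criterion. Three replicate groups of 10 insects were used.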

Compound | Insecticidal effect (Test Example 1), judged from mortality
CC(C)NC(=O)c1c(I)cccc1C(=O)Nc1c(Cl)ccc2c1OC(F)(F)O2 [compound 1743] | A (100)
CCOc1cc(C(F)(C(F)(F)F)C(F)(F)F)ccc1NC(=O)c1cccc(I)c1C(=O)NC(C)(C)C [compound 1694] | A (100)
Cc1cc(C(F)(F)C(F)(F)F)ccc1NC(=O)c1cccc(Cl)c1C(=O)N(C)Cc1ccccc1F [compound 1579] | A (100)
Cc1cc(C(F)(F)C(F)(F)F)ccc1NC(=O)c1c(Cl)cccc1C(=O)N[C@@H](C)CO [compound 1446] | A (100)
Cc1cc(C(F)(F)C(F)(F)F)ccc1NC(=O)c1c(Cl)cccc1C(=O)NCc1ccc(OC(F)(F)F)cc1 [compound 1577] | A (100)

Same assay, conditions: diamondback moth; judged by the mortality criterion of Test Example 1

Compound | Insecticidal effect, Test Example 1
Cc1ccc(F)cc1NC(=O)c1cc(Cl)ccc1C(=O)NC(C)C [compound 192] | A (100)
Cc1c(Cl)cccc1NC(=O)c1cc(Cl)ccc1C(=O)NC(C)C [compound 189] | A (100)

Same assay, conditions: diamondback moth; mortality judged by criterion of Test Example 1

Compound | Insecticidal effect, Test Example 1
Cc1cc(OC(F)(F)F)ccc1NC(=O)c1cc(I)ccc1C(=O)NC(C)C [compound 1247] | C (89-80)
Cc1cc(C(F)(F)C(F)(F)F)ccc1NC(=O)c1cccc(I)c1C(=O)N1CCC(C)CC1 [compound 1083] | A (100)
Cc1cc(C(F)(F)C(F)(F)F)ccc1NC(=O)c1cccc(Cl)c1C(=O)NCc1ccc(Cl)cc1Cl [compound 1349] | A (100)
Cc1cc(OC(=C(C(F)(F)F)C(F)(F)F)C(F)(F)C(F)(F)F)ccc1NC(=O)c1cccc(Cl)c1C(=O)NC(C)C [compound 1291] | A (100)

Same assay, conditions: mortality judged according to the criterion shown in Test Example 1

Compound | Insecticidal effect on diamondback moth (Test Example 1), judged grade
Cc1c(F)cccc1NC(=O)c1cccc(F)c1C(=O)NC(C)C [compound 494] | A (100)
Cc1cc(OC(F)(F)F)ccc1NC(=O)c1c(I)cccc1C(=O)NC(C)C [compound 464] | A (100)
CC(C)NC(=O)c1cccc(I)c1C(=O)Nc1ccc(OC(F)(F)F)cc1Cl [compound 467] | A (100)
Cc1cc(Cl)ccc1NC(=O)c1c(C#N)cccc1C(=O)NC(C)C [compound 745] | D (79-50)
CC(C)NC(=O)c1cccc(F)c1C(=O)Nc1ccc(OC(F)(F)F)cc1 [compound 537] | A (100)
Cc1cc(OC(F)F)ccc1NC(=O)c1cccc([N+](=O)[O-])c1C(=O)NC(C)C(C)C (centres unmarked) [compound 846] | A (100)
CCc1ccc(Cl)c(CC)c1NC(=O)c1cccc(Cl)c1C(=O)NC(C)C [compound 924] | A (100)

System: rice leafroller (Cnaphalocrocis medinalis)
Test: Insecticidal effect on rice leafroller (Test Example 3)
Format: in vivo
Details: 500 ppm, rice lamina dip, third-instar larvae of rice leafroller, 4 days after inoculation, 25° C., humidity 70%
Experimental: Insecticidal effect on rice leafroller (Cnaphalocrocis medinalis)
After air-drying, the lamina was placed in a plastic Petri dish with a diameter of 9 cm whose bottom had been covered with a wetted filter paper. The lamina was inoculated with third-instar larvae of rice leafroller, after which the dish was allowed to stand in a room thermostated at 25° C. and having a humidity of 70%. Four days after the inoculation, the dead and alive were counted and the insecticidal effect was judged according to the criterion shown in Test Example 1. The test was carried out with triplicate groups of 10 insects.

Compound | Insecticidal effect (Test Example 3), judged from mortality
CC(C)NC(=O)c1c(I)cccc1C(=O)Nc1c(Cl)ccc2c1OC(F)(F)O2 [compound 1743] | A (100)
Cc1cc(OC(F)(F)F)ccc1NC(=O)c1c(I)cccc1C(=O)NC(C)(C)CO [compound 1520] | A (100)
Cc1cc(C(F)(F)C(F)(F)F)ccc1NC(=O)c1c(Cl)cccc1C(=O)NC(C)(C)C#Cc1ccccc1 [compound 1480] | A (100)
Cc1ccc(C#CC(C)(C)NC(=O)c2c(Cl)cccc2C(=O)Nc2ccc(C(F)(F)C(F)(F)F)cc2C)cc1 [compound 1570] | A (100)
Cc1cc(C(F)(F)C(F)(F)F)c(C)cc1NC(=O)c1cccc(I)c1C(=O)NC(C)C [compound 1655] | A (100)
Cc1c(NC(=O)c2cccc(I)c2C(=O)NC(C)C)ccc(C(F)(F)C(F)(F)F)c1C [compound 1640] | A (100)

Same assay, conditions: 500 ppm, rice lamina dip, third-instar larvae, four days after inoculation, 25° C., humidity 70%

Compound | Insecticidal effect on rice leafroller (Test Example 3), judged grade
Cc1c(F)cccc1NC(=O)c1cccc(F)c1C(=O)NC(C)C [compound 494] | A (100)
Cc1cc(OC(F)(F)F)ccc1NC(=O)c1c(I)cccc1C(=O)NC(C)C [compound 464] | A (100)
CC(C)NC(=O)c1cccc(I)c1C(=O)Nc1ccc(OC(F)(F)F)cc1Cl [compound 467] | A (100)
Cc1cc(SC(F)(F)C(F)(F)F)ccc1NC(=O)c1c(I)cccc1C(=O)NC(C)C [compound 910] | A (100)
Cc1cc(OC(F)F)ccc1NC(=O)c1c(SCC(F)(F)F)cccc1C(=O)NC(C)C [compound 798] | A (100)
Cc1cc(OC(F)F)ccc1NC(=O)c1cccc(C(F)(F)F)c1C(=O)NC(C)C [compound 759] | D (79-50)
Cc1cc(Br)ccc1NC(=O)c1cccc([S+](C)[O-])c1C(=O)NC(C)C (centres unmarked) [compound 790] | A (100)
Cc1cc(OC(F)F)ccc1NC(=O)c1c(C(=O)NC(C)C)cccc1[S+]([O-])CC(F)(F)F (centres unmarked) [compound 800] | C (89-80)
Cc1cc(Cl)ccc1NC(=O)c1cccc(C(F)(F)F)c1C(=O)NC(C)C [compound 758] | A (100)
CC(C)NC(=O)c1cccc(F)c1C(=O)Nc1ccc(C(F)(F)C(F)(F)C(F)(F)C(F)(F)F)cc1 [compound 536] | A (100)
Cc1c(Cl)cccc1NC(=O)c1c(C(=O)NC(C)C)cccc1C(F)(F)F [compound 765] | A (100)
CC(C)NC(=O)c1c(C(=O)Nc2cccc3c2CCC3)cccc1[N+](=O)[O-] [compound 735] | D (79-50)
CCCCc1ccc(NC(=O)c2cccc([N+](=O)[O-])c2C(=O)NC(C)C)cc1 [compound 605] | C (89-80)

Same assay, conditions: 500 ppm; rice lamina immersed; third-instar larvae of rice leafroller; four days after inoculation; 25° C., humidity 70%

Compound | Insecticidal effect, Test Example 3
CC(C)NC(=O)c1ccccc1C(=O)Nc1ccc(C(F)(F)C(F)(F)C(F)(F)C(F)(F)F)cc1 [compound 28] | A (100)
CC(C)NC(=O)c1c(I)cccc1C(=O)Nc1ccc(C(F)(F)F)cc1 [compound 349] | A (100)
COC(=O)c1ccc(NC(=O)c2ccccc2C(=O)NC(C)C)c(C)c1 [compound 71] | D (79-50)
CC(C)NC(=O)c1cccc(I)c1C(=O)Nc1ccc(C(F)(F)F)cc1 [compound 415] | A (100)
CC(C)NC(=O)c1cccc(I)c1C(=O)Nc1ccc(OC(F)(F)F)cc1 [compound 418] | A (100)
CCOP(=O)(OCC)c1ccc(NC(=O)c2ccccc2C(=O)NC(C)C)c(C)c1 [compound 81] | A (100)
CC(C)NC(=O)c1c(I)cccc1C(=O)Nc1ccc(OC(F)(F)F)cc1 [compound 352] | A (100)
Cc1ccc(NC(=O)c2ccccc2C(=O)NC(C)C)c(C)c1 [compound 44] | A (100)

Same assay, conditions: rice leafroller third-instar larvae; rice lamina immersed, 500 ppm; four days after inoculation; 25° C., humidity 70%

Compound | Insecticidal effect, Test Example 3
Cc1cc(C#CC(C)(C)C)ccc1NC(=O)c1c(I)cccc1C(=O)NC(C)C [compound 1306] | A (100)
COC(Oc1ccc(NC(=O)c2cccc(Cl)c2C(=O)NC(C)C)c(C)c1)=C(C(F)(F)F)C(F)(F)F [compound 1293] | A (100)
Cc1cc(C(F)(F)C(F)(F)F)ccc1NC(=O)c1c(Cl)cccc1C(=O)NCCc1ccc(Cl)cc1 [compound 1361] | A (100)
CCCCCCNC(=O)c1cccc(I)c1C(=O)Nc1ccc(C(F)(F)C(F)(F)F)cc1C [compound 950] | C (89-80)
Cc1cc(C(F)(F)C(F)(F)F)ccc1NC(=O)c1c(I)cccc1C(=O)N(C(C)C)C(C)C [compound 1072] | A (100)
Cc1cc(C(F)(F)C(F)(F)F)ccc1NC(=O)c1cc(Cl)cc(Cl)c1C(=O)NC(C)C [compound 1225] | A (100)
Cc1cc(C(F)(F)C(F)(F)F)ccc1NC(=O)c1c(Cl)cccc1C(=O)NC(CO)c1ccc(Cl)cc1 (centres unmarked) [compound 1416] | A (100)
Cc1cc(OC(F)F)ccc1NC(=O)c1cccc(I)c1C(=O)NCc1ccccc1Cl [compound 1432] | A (100)
Cc1cc(OC(F)(F)F)ccc1NC(=O)c1cc(Cl)cc(Cl)c1C(=O)NC(C)C [compound 1224] | B (99-90)
Cc1cc(C(F)(F)C(F)(F)F)ccc1NC(=O)c1c(Cl)cccc1C(=O)NCc1ccccc1Cl [compound 1310] | B (99-90)
Cc1cc(C(F)(F)C(F)(F)F)ccc1NC(=O)c1c(I)cccc1C(=O)N1CC(C)CC(C)C1 (centres unmarked) [compound 1140] | A (100)
CCC(C)CNC(=O)c1cccc(I)c1C(=O)Nc1ccc(C(F)(F)C(F)(F)F)cc1C (centres unmarked) [compound 1027] | A (100)
CCN(CC)C(=O)c1cccc([N+](=O)[O-])c1C(=O)Nc1ccc(Cl)cc1C [compound 1138] | A (100)
Cc1cc(C(F)(C(F)(F)F)C(F)(F)F)ccc1NC(=O)c1cc(Cl)cc(Cl)c1C(=O)NC(C)C [compound 1226] | A (100)
Cc1cc(C(F)(F)C(F)(F)F)ccc1NC(=O)c1c(Cl)cccc1C(=O)NCc1ccc(Cl)cc1Cl [compound 1350] | A (100)
Cc1cc(C(F)(F)C(F)(F)F)ccc1NC(=O)c1c(I)cccc1C(=O)NCCC(C)C [compound 1016] | A (100)
Cc1cc(C(F)(F)C(F)(F)F)ccc1NC(=O)c1c(Cl)cccc1C(=O)NCc1ccccc1 [compound 1308] | C (89-80)
